Assay results from patent US20230031406A1, “COMPOUNDS AND COMPOSITIONS FOR TREATING CONDITIONS ASSOCIATED WITH NLRP ACTIVITY” (Novartis AG, priority 2018, published 2023).

test system: PMA-differentiated THP-1 cells; experiment: IL-1β production in PMA-differentiated THP-1 cells stimulated with gramicidin (hTHP-1 assay containing 2% fetal bovine serum; Procedures 1 and 2); assay type: cell-based, human; settings: Homo sapiens, THP-1, Table B1; 2% fetal bovine serum; class symbols; read-out: Average IC50 of compounds in hTHP-1 assay: hTHP-1 IC50
How it was run: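 Secreted IL-1β, read by HTRF, after gramicidin challenge (5 μM, 2 h) of THP-1 cells differentiated with PMA (20 ng/ml, 16-18 h) and plated at 50,000 cells/well in 2% FBS medium. Compounds, 0.0017-100 μM final with 0.37% DMSO, were added 1 h before stimulation.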

SMILES	IC50 [µM]
CCc1c(C)nc2c(c1NC(=O)N=S(N)(=O)c1cnc(C(C)(C)O)s1)CCC2 (single isomer, unassigned) [Compound 117b, (R) or (S)-N′-((3-ethyl-2-methyl-6,7-dihydro-5H-cyclopenta[b]pyridin-4-yl)carbamoyl)-2-(2-hydroxypropan-2-yl)thiazole-5-sulfonimidamide]	5 to 30
Cc1cc(C2CC2)nc(NC(=O)N=S(N)(=O)c2ncc(C(C)(C)O)s2)n1 (single isomer, unassigned) [Compound 185a, (R) or (S)-N′-((4-cyclopropyl-6-methylpyrimidin-2-yl)carbamoyl)-5-(2-hydroxypropan-2-yl)thiazole-2-sulfonimidamide]	5 to 30

Results, then the compound that gave them:

IC50 [µM]	SMILES
0.04 to 0.2	CC(C)(O)c1csc(S(N)(=O)=NC(=O)Nc2c3c(nc4c2CCC4)CCC3)c1 (stereo not drawn) [Compound 155, N′-((1,2,3,5,6,7-hexahydrodicyclopenta[b,e]pyridin-8-yl)carbamoyl)-4-(2-hydroxypropan-2-yl)thiophene-2-sulfonimidamide]
1 to 5	CC1CCc2c1nc1c(c2NC(=O)N=S(N)(=O)c2ccc(CN(C)C)cc2)CCC1 (single isomer, unassigned) [Compound 134ba, (R,R) or (R,S)-4-((dimethyl-amino)methyl)-N′-((3-methyl-1,2,3,5,6,7-hexa-hydrodicyclo-penta[b,e]pyridin-8-yl)carbamoyl)benzene-sulfonimidamide]
0.2 to 1	CC1CCc2nc3c(c(NC(=O)N=S(N)(=O)c4cnc(C(C)(C)O)s4)c21)CCC3 (stereo not drawn) [Compound 151, 2-(2-hydroxypropan-2-yl)-N′-((1-methyl-1,2,3,5,6,7-hexahydrodicyclopenta[b,e]pyridin-8-yl)carbamoyl)thiazole-5-sulfonimidamide]

same assay, conditions: Homo sapiens, THP-1, Table B1; 2% fetal bovine serum; numeric bounds; read-out: Average IC50 of compounds in hTHP-1 assay: hTHP-1 IC50

IC50 [µM]	SMILES
> 30	CC1CCc2c1nc1c(c2NC(=O)N=S(N)(=O)c2ccn(C(C)C)n2)CCC1 (single isomer, unassigned) [Compound 129ab, (S,S) or (S,R)-1-isopropyl-N′-((3-methyl-1,2,3,5,6,7-hexa-hydrodicyclo-penta[b,e]pyridin-8-yl)carbamoyl)-1H-pyrazole-3-sulfonimidamide]
> 30	Cn1nc(S(N)(=O)=NC(=O)Nc2c3c(nc4c2CCC4)CCC3)cc1C(C)(C)O (single isomer, unassigned) [Compound 158b, (S) or (R)-N′-((1,2,3,5,6,7-hexahydrodicyclo-penta[b,e]pyridin-8-yl)carbamoyl)-5-(2-hydroxypropan-2-yl)-1-methyl-1H-pyrazole-3-sulfonimidamide]

same assay, conditions: Homo sapiens, THP-1, Table B2; 2% fetal bovine serum; class symbols; read-out: hTHP-1 IC50

SMILES	IC50 [µM]
CC(C)(CO)c1ncc(S(N)(=O)=NC(=O)Nc2c3c(nc4c2CCC4(C)C)CCC3)s1 (stereo not drawn) [Compound 737]	0.2 to 1
C[C@](O)(CO)c1cc(F)c(S(N)(=O)=NC(=O)Nc2c3c(nc4c2CCC42CC2)CCC3)s1 (stereo partly drawn) [Compound 716a]	0.04 to 0.2
Cc1c(C(F)(F)F)nc2c(c1NC(=O)N=S(N)(=O)c1ccn(C(C)C)n1)CCC2 (stereo not drawn) [Compound 628, 1-Isopropyl-N′-((3-methyl-2-(trifluoromethyl)-6,7-dihydro-5H-cyclopenta[b]pyridin-4-yl)carbamoyl)-1H-pyrazole-3-sulfonimidamide]	0.2 to 1
Cc1c(C2CC2)nc2c(c1NC(=O)N=S(N)(=O)c1sc(C(C)(C)O)nc1CO)CCC2 (stereo not drawn) [Compound 679, N′-((2-cyclopropyl-3-methyl-6,7-dihydro-5H-cyclopenta[b]pyridin-4-yl)carbamoyl)-4-(hydroxymethyl)-2-(2-hydroxypropan-2-yl)thiazole-5-sulfonimidamide]	5 to 30
Cc1cc(C2CC2)nc(NC(=O)N=S(N)(=O)c2ncc(C(C)(C)O)s2)n1 (single isomer, unassigned) [Compound 185a, (R) or (S)-N′-((4-cyclopropyl-6-methylpyrimidin-2-yl)carbamoyl)-5-(2-hydroxypropan-2-yl)thiazole-2-sulfonimidamide]	5 to 30

Next, values leading:

IC50 [µM]	SMILES
1 to 5	Cc1c(CC2CC2)nc2c(c1NC(=O)N=S(N)(=O)c1cc(C(C)(C)O)cs1)CCC2 (single isomer, unassigned) [Compound 665b, (R) or (S)-N′-((2-(cyclopropylmethyl)-3-methyl-6,7-dihydro-5H-cyclopenta[b]pyridin-4-yl)carbamoyl)-4-(2-hydroxypropan-2-yl)thiophene-2-sulfonimidamide]
5 to 30	Cc1c(C2CCC2)nc2c(c1NC(=O)N=S(N)(=O)c1cnc(C(C)(C)O)s1)CCC2 (stereo not drawn) [Compound 649, N′-((2-cyclobutyl-3-methyl-6,7-dihydo-5H-cyclopenta[b]pyridin-4-yl)carbamoyl)-2-(2-hydroxypropan-2-yl)thiazole-5-sulfonimidamide]
5 to 30	Cc1cc(C(C)(C)O)sc1S(N)(=O)=NC(=O)Nc1c2c(nc3c1CCC3)CCC2 (single isomer, unassigned) [Compound 695b, (R) or (S)-N′-((1,2,3,5,6,7-hexahydrodicyclopenta [b,e]pyridin-8-yl)carbamoyl)-5-(2-hydroxypropan-2-yl)-3-methylthiophene-2-sulfonimidamide]
1 to 5	CCc1c(C(F)(F)F)nc2c(c1NC(=O)N=S(N)(=O)c1cc(C(C)(C)O)cs1)CCC2 (stereo not drawn) [Compound 609, N′-((3-ethyl-2-(trifluoromethyl)-6,7-dihydro-5H-cyclopenta[b]pyridin-4-yl)carbamoyl)-4-(2-hydroxypropan-2-yl)thiophene-2-sulfonimidamide]

same assay, conditions: Homo sapiens, THP-1, Table B3; hTHP-1 assay, 2% fetal bovine serum; class symbols; read-out: IC50

IC50 [µM]	SMILES
5 to 30	Cc1nc2c(c(NC(=O)N=S(N)(=O)c3sc(C(O)(CO)CO)nc3CO)c1C(F)(F)F)CCC2 (stereo not drawn) [Example 587, 4-(Hydroxymethyl)-N′-((2-methyl-3-(trifluoromethyl)-6,7-dihydro-5H-cyclopenta[b]pyridin-4-yl)calbamoyl)-2-(1,2,3-trihydroxypropan-2-yl)thiazole-5-sulfonimidamide]
0.04 to 0.2	C[C@@H]1CCc2c1nc1c(c2NC(=O)N=[S@@](N)(=O)c2cc([C@@H](C)O)cs2)CCC1 (single isomer, unassigned) [Example 663, (R)-4-((R) or (S)-1-hydroxyethyl)-N′-(((R)-3-methyl-1,2,3,5,6,7-hexahydrodicyclopenta[b,e]pyridin-8-yl)carbamoyl) thiophene-2-sulfonimidamide]

same assay, conditions: Homo sapiens, THP-1, Table B3; hTHP-1 assay, 2% fetal bovine serum; numeric values; read-out: IC50

IC50 [µM]	SMILES
> 30	Cc1c(C(F)(F)F)nc2c(c1NC(=O)N=S(N)(=O)c1ccn(C)n1)CCC2 (single isomer, unassigned) [Example 694, (S) or (R)-1-Methyl-N′-((3-methyl-2-(trifluoromethyl)-6,7-dihydro-5H-cyclopenta[b]pyridin-4-yl)carbamoyl)-1H-pyrazole-3-sulfonimidamide]

same assay, conditions: Homo sapiens, THP-1, Table B4; 2% fetal bovine serum; class symbols; read-out: hTHP-1 IC50

IC50 [µM]	SMILES
0.008 to 0.04	CCn1cc(F)c(S(N)(=O)=NC(=O)Nc2c3c(nc(C(F)(F)F)c2-c2ccccc2)CCC3)n1 (stereo not drawn) [Example 742, 1-Ethyl-4-fluoro-N′-((3-phenyl-2-(trifluoromethyl)-6,7-dihydro-5H-cyclopenta[b]pyridin-4-yl)carbamoyl)-1H-pyrazole-3-sulfonimidamide]

same assay, conditions: Table B1; 2% fetal bovine serum; class symbols; read-out: Average IC50 of compounds in hTHP-1 assay: hTHP-1 IC50

IC50 [µM]	SMILES
0.2 to 1	CC(C)(O)c1cnc(S(N)(=O)=NC(=O)Nc2c3c(nc4c2CCC4)CCC3)s1 (single isomer, unassigned) [Compound 167b, (R) or (S)-N′-((1,2,3,5,6,7-hexahydrodicyclo-penta[b,e]pyridin-8-yl)carbamoyl)-5-(2-hydroxypropan-2-yl)thiazole-2-sulfonimidamide]

same assay, conditions: Table B2; 2% fetal bovine serum; class symbols; read-out: hTHP-1 IC50

IC50 [µM]	SMILES
5 to 30	CC(C)c1nc(CO)c(S(N)(=O)=NC(=O)Nc2c3c(nc4c2CCC4(C)C)CCC3)s1 (single isomer, unassigned) [Compound 680a, (S) or (R)-N′-((3,3-dimethyl-1,2,3,5,6,7-hexahydrodicyclopenta [b,e]pyridin-8-yl)carbamoyl)-4-(hydroxymethyl)-2-isopropylthiazole-5-sulfonimidamide]
5 to 30	CCn1cc(Cl)c(S(N)(=O)=NC(=O)Nc2c(C)c(C(F)(F)F)nc3c2CCC3)n1 (single isomer, unassigned) [Compound 729a, (S) or (R)-4-Chloro-1-ethyl-N′-((3-methyl-2-(trifluoromethyl)-6,7-dihydro-5H-cyclopenta[b]pyridin-4-yl)carbamoyl)-1H-pyrazole-3-sulfonimidamide]
1 to 5	CCc1c(C(F)(F)F)nc2c(c1NC(=O)N=S(N)(=O)c1cnc(C(C)(C)O)s1)CCC2 (single isomer, unassigned) [Compound 610a, (R) or (S)-N′-((3-ethyl-2-(trifluoromethyl)-6,7-dihydro-5H-cyclopenta[b]pyridin-4-yl)carbamoyl)-2-(2-hydroxypropan-2-yl)thiazole-5-sulfonimidamide]
5 to 30	C[C@@H]1CCc2c1nc1c(c2NC(=O)N=S(N)(=O)c2cc(F)c(C(C)(C)O)s2)CCC1 (single isomer, unassigned) [Compound 616b, (S) or (R)-4-Fluoro-5-(2-hydroxypropan-2-yl)-N′-(((R)-3-methyl-1,2,3,5,6,7-hexahydrodicyclopenta [b,e]pyridin-8-yl)carbamoyl) thiophene-2-sulfonimidamide]

same assay, conditions: Table B3; hTHP-1 assay, 2% fetal bovine serum; class symbols; read-out: IC50

IC50 [µM]	SMILES
5 to 30	CCc1ncc(S(N)(=O)=NC(=O)Nc2c3c(nc4c2CC[C@H]4C)CCC3)s1 (single isomer, unassigned) [Example 673, (S) or (R)-2-ethyl-N′-(((R)-3-methyl-1,2,3,5,6,7-hexahydrodicyclopenta[b,e]pyridin-8-yl)carbamoyl) thiazole-5-sulfonimidamide]
0.2 to 1	CCn1ccc(S(N)(=O)=NC(=O)Nc2c3c(nc(C4CC4)c2C2CC2)CCC3)n1 (single isomer, unassigned) [Example 699, (R) or (S)-N′-((2,3-dicyclopropyl-6,7-dihydro-5H-cyclopenta[b]pyridin-4-yl)carbamoyl)-1-ethyl-1H-pyrazole-3-sulfonimidamide]
